Structures are written as SMILES. Like-named read-outs stand apart in the source and are kept apart here.

Consider 17 compounds from patent US10793568B2, “Hormone receptor modulators for treating metabolic conditions and disorders” (ARDELYX, INC., priority 2016, dated 2020).

Experiment [1] deals with ligand binding domain of human FXR (Homo sapiens (Human), UniProt Q96RI1). The experiment in a line: FXR ligand binding assay (LanthaScreen TR-FRET, SRC2-2 peptide recruitment). Conditions: for pEC50: -log EC50, concentration required to produce 50% activation; for Emax: read-out: % Efficacy.
Experiment [2] addresses human Farnesoid X receptor ligand-binding domain/Gal4 DNA binding domain chimera (Homo sapiens (Human), UniProt Q96RI1). The experiment in a line: Cell-based assay of FXR activation (FXR-UAS-bla HEK 293T beta-lactamase reporter). The note with it: cellular FXR beta-lactamase reporter assay; for Emax: HEK-293T, extent of activation relative to GW4064, read-out: % Efficacy; for EC50: FXR-UAS-bla HEK 293T cells, 16 h, pEC50 = -log EC50. The method, boiled down: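 Readout is cleavage of the CCF4 FRET substrate (409 nm excitation, blue 447 nm signal) by beta-lactamase, expressed under UAS control after a Gal4–human FXR LBD chimera is activated in HEK 293T cells. Compounds were added as 3-fold dilutions for 16 h at 37 °C in 2% charcoal-stripped FBS medium. Curves were fit to a 3-parameter logistic equation to give pEC50, with % activation relative to GW4064.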

The mark [3] stands for this setting: extent of activation relative to GW4064.

Sequence of human Farnesoid X receptor ligand-binding domain/Gal4 DNA binding domain chimera (Q96RI1 262-486, change not shown): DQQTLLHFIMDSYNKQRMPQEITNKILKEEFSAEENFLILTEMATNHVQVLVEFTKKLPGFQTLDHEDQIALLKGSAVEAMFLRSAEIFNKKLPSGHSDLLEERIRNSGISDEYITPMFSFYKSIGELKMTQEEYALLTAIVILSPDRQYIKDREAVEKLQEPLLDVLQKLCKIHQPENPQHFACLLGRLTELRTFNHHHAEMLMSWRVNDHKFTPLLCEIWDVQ
Sequence of human Farnesoid X receptor ligand-binding domain/Gal4 DNA binding domain chimera (P04386 1-147 partner): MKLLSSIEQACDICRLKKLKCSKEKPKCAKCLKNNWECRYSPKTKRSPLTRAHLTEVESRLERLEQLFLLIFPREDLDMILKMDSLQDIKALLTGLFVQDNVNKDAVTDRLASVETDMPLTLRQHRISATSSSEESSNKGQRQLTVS
Sequence of ligand binding domain of human FXR (Q96RI1 262-486): as the sequence (Q96RI1 262-486, change not shown) above

On to `O=C(O)c1cc(C2CCOC2)c2nc(N3C[C@@H]4C[C@H]3C[C@H]4OCc3c(-c4c(Cl)cccc4Cl)noc3C3CC3)sc2c1` (stereo partly drawn) [Compound I-251, 2-[(1S,4S,5R)-5-{[5-cyclopropyl-3-(2,6-dichlorophenyl)-1,2-oxazol-4-yl]methoxy}-2-azabicyclo[2.2.1]heptan-2-yl]-4-(oxolan-3-yl)-1,3-benzothiazole-6-carboxylic Acid], for which the pEC50 in experiment [1] came out at 9.1. For the same compound, in experiment [1] (setting [3]), the Emax is 133%. Also, in experiment [2], the Emax stood at 110% and the response was half-maximal at 0.2 nM (EC50).
Taken in the same sequence, the figures for `Cc1cccc(Cl)c1-c1noc(C2CC2)c1CO[C@@H]1C[C@@H]2C[C@H]1CN2c1nc2c([C@@H]3CCOC3)cc(C(=O)O)cc2s1` [Compound I-273, 2-((1S,4S,5R)-5-((3-(2-chloro-6-methylphenyl)-5-cyclopropylisoxazol-4-yl)methoxy)-2-azabicyclo[2.2.1]heptan-2-yl)-4-((S)-tetrahydrofuran-3-yl)benzo[d]thiazole-6-carboxylic Acid] were 8.4, 132%, 106% and 0.398 nM.
Taken in the same sequence, the figures for `O=C(NCCS(=O)(=O)O)c1ccc(N2C[C@@H]3C[C@H]2C[C@H]3OCc2c(-c3c(Cl)cccc3Cl)noc2C2CC2)cc1F` [Compound I-168, 2-({4-[(1S,4S,5R)-5-{[5-cyclopropyl-3-(2,6-dichlorophenyl)-1,2-oxazol-4-yl]methoxy}-2-azabicyclo[2.2.1]heptan-2-yl]-2-fluorophenyl}formamido)ethane-1-sulfonic Acid] were 8.6, 164%, 107% and 100 nM.
`CCOc1cc(C(=O)O)cc2sc(N3C[C@@H]4C[C@H]3C[C@H]4OC(=O)c3c(-c4c(Cl)cccc4Cl)noc3C3CC3)nc12` [Compound I-8, 2-[(1S,4S,5R)-5-[5-cyclopropyl-3-(2,6-dichlorophenyl)-1,2-oxazole-4-carbonyloxy]-2-azabicyclo[2.2.1]heptan-2-yl]-4-ethoxy-1,3-benzothiazole-6-carboxylic acid] returned a pEC50 in experiment [1] of 7.6. Also, the Emax in experiment [1] (setting [3]) came to 137%. In experiment [2], the Emax was determined as 106% and the response was half-maximal at 2.51 nM (EC50).
As for `O=P(O)(O)Cc1ccc(N2C[C@@H]3C[C@H]2C[C@H]3OCc2c(-c3c(Cl)cccc3Cl)noc2C2CC2)cc1` [Compound I-176, ({4-[(1S,4S,5R)-5-{[5-cyclopropyl-3-(2,6-dichlorophenyl)-1,2-oxazol-4-yl]methoxy}-2-azabicyclo[2.2.1]heptan-2-yl]phenyl}methyl)phosphonic Acid], in experiment [1], the pEC50 was determined as 7.5 and the Emax was 120%. Also, in experiment [2], the Emax worked out at 92% and a half-maximal response (EC50) required 631 nM.
Consider `CCCS(=O)(=O)NC(=O)c1ccc(N2C[C@@H]3C[C@H]2C[C@H]3OC(=O)c2c(-c3c(Cl)cccc3Cl)noc2C2CC2)c(F)c1` [Compound I-49, (1S,4S,5R)-2-{2-fluoro-4-[(propane-1-sulfonyl)carbamoyl]phenyl}-2-azabicyclo[2.2.1]heptan-5-yl 5-cyclopropyl-3-(2,6-dichlorophenyl)-1,2-oxazole-4-carboxylate], for which the pEC50 in experiment [1] was found to be 8. Moreover, the Emax amounted to 188% in experiment [1] (setting [3]) and 118% in experiment [2]. In addition, the EC50 in experiment [2] was 3.98 nM.
For `Cc1cccc(Cl)c1-c1noc(C2CC2)c1CO[C@@H]1C[C@@H]2C[C@H]1CN2c1ccc(C(=O)O)c(F)c1` [Compound I-115, 4-[(1S,4S,5R)-5-{[3-(2-chloro-6-methylphenyl)-5-cyclopropyl-1,2-oxazol-4-yl]methoxy}-2-azabicyclo[2.2.1]heptan-2-yl]-2-fluorobenzoic Acid], in that order: 9.6, 144%, 108% and 2 nM.
For the compound `Cc1cccc(Cl)c1-c1noc(C2CC2)c1CO[C@@H]1C[C@@H]2C[C@H]1CN2c1nc2c(OC3CC3)cc(C(=O)O)cc2s1` [Compound I-270, 2-((1S,4S,5R)-5-((3-(2-chloro-6-methylphenyl)-5-cyclopropylisoxazol-4-yl)methoxy)-2-azabicyclo[2.2.1]heptan-2-yl)-4-cyclopropoxybenzo[d]thiazole-6-carboxylic acid], in experiment [1], the pEC50 is reported as 8.7. In addition, the Emax in experiment [1] (setting [3]) was determined as 150%. In addition, in experiment [2], the Emax turned out to be 106% and a half-maximal effect (EC50) was put at 0.1 nM.
In experiment [1], `O=C(O)c1cnc(N2C[C@@H]3C[C@H]2C[C@H]3OCc2c(-c3c(Cl)cccc3Cl)noc2C2CC2)nc1` [Compound I-145, 2-[(1S,4S,5R)-5-{[5-cyclopropyl-3-(2,6-dichlorophenyl)-1,2-oxazol-4-yl]methoxy}-2-azabicyclo[2.2.1]heptan-2-yl]pyrimidine-5-carboxylic Acid] yielded a pEC50 of 8. The Emax in experiment [1] (setting [3]) is 118%. Moreover, in experiment [2], the Emax was found to be 108% and the EC50 is 63.1 nM.
Taken in the same sequence, the figures for `O=C(O)c1cc([C@H]2CCOC2)c2nc(N3C[C@@H]4C[C@H]3C[C@H]4OCc3c(C4CCC5(CC4)CC5)noc3C3CC3)sc2c1` [Compound I-280, 2-((1S,4S,5R)-5-((5-cyclopropyl-3-(spiro[2.5]octan-6-yl)isoxazol-4-yl)methoxy)-2-azabicyclo[2.2.1]heptan-2-yl)-4-((R)-tetrahydrofuran-3-yl)benzo[d]thiazole-6-carboxylic acid] were 7.3, 115%, 105% and 25.1 nM.
Consider `O=C(O)c1ccc(N2C[C@H]3C[C@@H]2C[C@@H]3OCc2c(-c3c(Cl)cccc3Cl)noc2C2CC2)c(F)c1` [Compound I-131, 4-[(1R,4R,5S)-5-{[5-cyclopropyl-3-(2,6-dichlorophenyl)-1,2-oxazol-4-yl]methoxy}-2-azabicyclo[2.2.1]heptan-2-yl]-3-fluorobenzoic Acid], for which, in experiment [1], the Emax turned out to be 108%. In experiment [2], the Emax is 94% and the midpoint of the response, the EC50, lay at 31.6 nM.
In turn, `O=C(O)c1cc(O[C@@H]2CCOC2)c2nc(N3C[C@@H]4C[C@H]3C[C@H]4OCc3c(-c4c(F)cccc4Cl)noc3C3CC3)sc2c1` [Compound I-268, 2-((1S,4S,5R)-5-((3-(2-chloro-6-fluorophenyl)-5-cyclopropylisoxazol-4-yl)methoxy)-2-azabicyclo[2.2.1]heptan-2-yl)-4-(((R)-tetrahydrofuran-3-yl)oxy)benzo[d]thiazole-6-carboxylic acid] showed a pEC50 in experiment [1] of 8.6. Besides, the Emax amounted to 146% in experiment [1] (setting [3]) and 102% in experiment [2]. This compound also showed an EC50 in experiment [2] of 1.58 nM.
Taken in the same sequence, the figures for `CN1CCC(S(=O)(=O)NC(=O)c2ccc(N3C[C@@H]4C[C@H]3C[C@H]4OCc3c(-c4c(Cl)cccc4Cl)noc3C3CC3)cc2)CC1` [Compound I-187, 4-((1S,4S,5R)-5-((5-cyclopropyl-3-(2,6-dichlorophenyl)isoxazol-4-yl)methoxy)-2-azabicyclo[2.2.1]heptan-2-yl)-N-((1-methylpiperidin-4-yl)sulfonyl)benzamide] were 9.2, 156%, 104% and 10 nM.
Taken in the same sequence, the figures for `O=C(O)c1ccc(N2C[C@@H]3C[C@H]2C[C@H]3OCc2c(-c3c(Cl)cccc3Cl)noc2C2(F)CC2)cc1` [Compound I-56, 4-[(1S,4S,5R)-5-{[3-(2,6-dichlorophenyl)-5-(1-fluorocyclopropyl)-1,2-oxazol-4-yl]methoxy}-2-azabicyclo[2.2.1]heptan-2-yl]benzoic Acid] were 8.5, 137%, 125% and 2 nM.
Taken in the same sequence, the figures for `CCc1cc(C(=O)O)ccc1N1C[C@@H]2C[C@H]1C[C@H]2OCc1c(-c2c(Cl)cccc2Cl)noc1C1CC1` [Compound I-109, 4-((1S,4S,5R)-5-((5-cyclopropyl-3-(2,6-dichlorophenyl)isoxazol-4-yl)methoxy)-2-azabicyclo[2.2.1]heptan-2-yl)-3-ethylbenzoic acid] were 9.4, 117%, 100% and 1.58 nM.
In turn, `O=C(NCCS(=O)(=O)C1CC1)c1ccc(N2C[C@@H]3C[C@H]2C[C@H]3OCc2c(-c3c(Cl)cccc3Cl)noc2C2CC2)cc1F` [Compound I-171, N-[2-(cyclopropanesulfonyl)ethyl]-4-[(1S,4S,5R)-5-{[5-cyclopropyl-3-(2,6-dichlorophenyl)-1,2-oxazol-4-yl]methoxy}-2-azabicyclo[2.2.1]heptan-2-yl]-2-fluorobenzamide] returned a pEC50 in experiment [1] of 8.6. Further, in experiment [1] (setting [3]), the Emax stood at 147%. In experiment [2], the Emax is 104% and a half-maximal response (EC50) required 0.794 nM.
Taken in the same sequence, the figures for `O=C(O)c1cnc(N2C[C@@H]3C[C@H]2C[C@H]3OCc2c(-c3c(Cl)cccc3Cl)noc2C2(F)CC2)c(F)c1` [Compound I-130, 6-[(1S,4S,5R)-5-{[3-(2,6-dichlorophenyl)-5-(1-fluorocyclopropyl)-1,2-oxazol-4-yl]methoxy}-2-azabicyclo[2.2.1]heptan-2-yl]-5-fluoropyridine-3-carboxylic Acid] were 8, 152%, 99% and 7.94 nM.
